Reference: patent publication US8846699B2, “Quinazoline derivatives as a multiplex inhibitor and method for the preparation thereof” (Hanmi Pharm. Co., Ltd., priority 2005, dated 2014)

How the values were obtained:
[1] = test system: breast cancer cell line, SK-Br3; assay: Inhibitory effect on growth of cancer cell line SK-Br3, SRB; type: cell-based; details: overexpressed EGFR2 (HER-2)
From the text: (§1) A skin cancer cell line, A431 (ATCC: CRL-1555), a breast cancer cell line, SK-Br3 (ATCC: HTB-30), and a colon and rectal cancer cell line, SW-620 (ATCC: CCL-227) were used to test the degrees of cancer cell growth inhibition using a culture medium, DEME (Dulbecco's Modified Eagle's Medium, JBI) including 4.5 g/l of glucose and 1.5 g/l of sodium bicarbonate and supplemented with 10% FBS (fetal bovine serum, JBI).
(§2) The cancer cell lines stored in a liquid nitrogen tank were each quickly thawed at 37° C., and centrifuged to remove the medium. The resulting cell pellet was mixed with a culture medium, incubated in a culture flask at 37° C. under 5% CO2 for 2 to 3 days, and the medium was removed. The remaining cells were washed with DPBS (Dulbecco's Phosphate Buffered Saline, JBI) and separated from the flask by using Trypsin-EDTA solution, and the separated cells were diluted with a culture medium to a concentration of 1.0×10^6 cells/ml in case of A431 and SW-620, and 2.0×10^6 cells/ml in case of SK-Br3. 100 μl of the diluted cell solution was added to each well of a 96-well plate, which was incubated at 37° C. under 5% CO2 for 1 day.
(§3) In case that the test compound was not soluble in DMSO, a small amount of 1% HCl was added thereto and treated in a 40° C. water bath for 30 mins until complete dissolution was attained. The test compound solution was diluted with a culture medium to a final concentration of 10 μM, and then diluted 10 times serially to 10^−4. The final concentration of DMSO was less than 1%, and the control compounds of Test Example 1 were used at a concentration of 0.0001 to 10 μM.
(§4) The medium was removed from each well of the 96-well microplate, 100 μl of a diluted test compound solution was added to each well holding cultured cells, and the microplate was incubated at 37° C. under 5% CO2 for 72 hours. After removing the medium from the plate, 50 μl of 10% trichloroacetic acid was added to each well, and the plate was kept at 37° C. for 1 hour to fix the cells to the bottom of the plate. 10% trichloroacetic acid was removed from each well, the plate was dried, 100 μl of an SRB (Sulforhodamine-B, Sigma) dye solution was added thereto, and reacted for 10 mins. The SRB dye solution was prepared by dissolving SRB in 1% acetic acid to a concentration of 0.4%. After removing the dye solution, the plate was washed with water, and dried. When the dye solution was not removed by water, 1% acetic acid was used.
(§5) 150 μl of 10 mM trisma base (Sigma) was added to each well, and the absorbance at 570 nm was determined with a microplate reader (Molecular device).

[2] = test system: skin cancer cell line, A431; assay: Inhibitory effect on growth of cancer cell line A431, SRB; type: cell-based; details: overexpressed EGFR1 (HER-1)
From the text: as §1, §2, §3, §4, §5

[3] = target: EGFR1 (HER-1) (Homo sapiens (Human), UniProt P00533); assay: EGFR1 (HER-1) enzyme assay, fluorescence polarization; type: biochemical; details: 100 μM ATP, poly(Glu, Tyr) substrate
[4] = test system: colon and rectal cancer cell line, SW-620; assay: Inhibitory effect on growth of cancer cell line SW-620, SRB; type: cell-based; details: not having overexpressed EGFR and EGFR2
From the text: as §1, §2, §3, §4, §5

[5] = test system: Human Umbilical Vein Endothelial Cell (HUVEC); assay: Inhibitory effect on growth of human umbilical vein endothelial cell (HUVEC), MTS; type: cell-based; details: 10 ng/ml VEGF, absorbance 490 nm
Method: HUVECs (Young Science, Inc) were suspended in a culture medium, EBM-2 (Endothelial Basic Media, Cambrex) supplemented with 2% bovine serum (Cambrex) and auxiliary additives for HUVEC culture (e.g., EGF, VEGF, FGF, etc., Cambrex), inoculated into a culture flask coated with 1% gelatin, and incubated in an incubator at 37° C. under 5% CO2 and 100% humidity.
100 μl of 5% bovine serum medium containing 10 ng/ml of vascular endothelial growth factor (VEGF) and auxiliary additives, while excluding other growth factors was added to each well of a 96-well plate. […] DMSO (Dimethylsulfoxide) was used to dissolve the test compounds, and the final concentration of DMSO was less than 1%.
100 μl of the diluted cell solution was added to each well of the 96-well plate, which was incubated in an incubator for 96 hours.
Then, 20 μl of MTS ([…], Promega) solution was added to each well of the plate, and the plate was incubated in an incubator for 4 hours to induce discoloration. After 4 hours, the pellets were dissolved by way of a thorough shaking, and the absorbance at 490 nm was determined.

[6] = target: VEGFR2 (KDR) (Homo sapiens (Human), UniProt P35968); assay: VEGFR2 (KDR) enzyme assay, fluorescence polarization; type: biochemical; details: 5 μM ATP, poly(Glu, Tyr) substrate
Method: VEGFR2 (KDR, Proquinase) enzyme assay (auto-phosphorylation assay) was carried out by using Tyrosine Kinase Assay Kit Green (Panvera). The entire assay was conducted in accordance with VEGFR PTK inhibitor cellular activity test S.O.P.
A typical kinase inhibition reaction requires a protein tyrosine kinase, a suitable buffer solution system, a peptide substrate and ATP. In the present VEGFR tyrosine kinase assay, a buffer solution system containing 20 mM HEPES (pH 7.4), 5 mM MgCl2 and 2 mM MnCl2; 50 μM Na3VO4; 200 ng/10 μl VEGFR (Proquinase); 5 μM ATP; and 10 ng/ml poly(Glu, Tyr) (4:1, Sigma) as a substrate were used.
The compounds of Test Example 1 were used as control compounds at a concentration of 0.0001 to 10 μM. After 10 min, 10 μl of poly(Glu, Tyr) as a substrate was added to each well, and 10 μl of ATP was added thereto to initiate kinase reaction. The plate was incubated at room temperature for 1 hour, and 10 μl of 100 mM EDTA was added to each well to terminate the kinase reaction.
The added EDTA was mixed for 5 min. Thereafter, 10 μl of 10× anti-phosphotyrosine antibody (Panvera), 10 μl of 10×PTK Green Tracer (Panvera) and 30 μl of FP dilution buffer (Panvera) were added thereto, and the plate was incubated in a dark room at room temperature for 30 min.

Chain of EGFR1 (HER-1) (P00533 25-1210): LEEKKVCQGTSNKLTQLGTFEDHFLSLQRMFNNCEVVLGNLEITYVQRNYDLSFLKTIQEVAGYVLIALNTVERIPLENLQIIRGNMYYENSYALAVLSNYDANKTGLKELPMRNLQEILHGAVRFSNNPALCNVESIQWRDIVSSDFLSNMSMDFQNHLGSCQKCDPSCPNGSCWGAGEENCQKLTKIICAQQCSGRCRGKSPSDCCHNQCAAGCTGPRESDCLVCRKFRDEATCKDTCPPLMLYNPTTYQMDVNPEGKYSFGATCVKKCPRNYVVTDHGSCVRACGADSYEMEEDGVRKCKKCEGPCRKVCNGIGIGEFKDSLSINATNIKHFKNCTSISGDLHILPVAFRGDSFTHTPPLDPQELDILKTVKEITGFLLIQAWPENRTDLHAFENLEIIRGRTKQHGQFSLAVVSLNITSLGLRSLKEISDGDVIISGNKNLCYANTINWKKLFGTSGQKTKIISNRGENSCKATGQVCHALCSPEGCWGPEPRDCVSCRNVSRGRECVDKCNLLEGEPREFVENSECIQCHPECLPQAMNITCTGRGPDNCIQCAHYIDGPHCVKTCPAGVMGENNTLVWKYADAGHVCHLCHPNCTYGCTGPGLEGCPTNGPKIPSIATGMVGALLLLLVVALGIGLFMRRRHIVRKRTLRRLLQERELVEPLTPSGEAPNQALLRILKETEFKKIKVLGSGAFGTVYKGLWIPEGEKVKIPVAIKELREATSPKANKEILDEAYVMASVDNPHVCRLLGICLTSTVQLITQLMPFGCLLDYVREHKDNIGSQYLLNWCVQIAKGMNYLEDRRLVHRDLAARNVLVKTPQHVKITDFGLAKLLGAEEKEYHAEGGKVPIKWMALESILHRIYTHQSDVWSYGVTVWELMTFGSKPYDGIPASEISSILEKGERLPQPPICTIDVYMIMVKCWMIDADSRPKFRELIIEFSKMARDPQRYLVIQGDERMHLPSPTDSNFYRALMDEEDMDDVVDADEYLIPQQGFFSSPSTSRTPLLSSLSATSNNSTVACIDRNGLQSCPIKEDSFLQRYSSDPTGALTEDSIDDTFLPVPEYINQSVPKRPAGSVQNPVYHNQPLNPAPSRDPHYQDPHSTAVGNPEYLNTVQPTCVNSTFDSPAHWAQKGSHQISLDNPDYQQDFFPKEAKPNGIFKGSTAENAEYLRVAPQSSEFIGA
Chain of VEGFR2 (KDR) (P35968 20-1356): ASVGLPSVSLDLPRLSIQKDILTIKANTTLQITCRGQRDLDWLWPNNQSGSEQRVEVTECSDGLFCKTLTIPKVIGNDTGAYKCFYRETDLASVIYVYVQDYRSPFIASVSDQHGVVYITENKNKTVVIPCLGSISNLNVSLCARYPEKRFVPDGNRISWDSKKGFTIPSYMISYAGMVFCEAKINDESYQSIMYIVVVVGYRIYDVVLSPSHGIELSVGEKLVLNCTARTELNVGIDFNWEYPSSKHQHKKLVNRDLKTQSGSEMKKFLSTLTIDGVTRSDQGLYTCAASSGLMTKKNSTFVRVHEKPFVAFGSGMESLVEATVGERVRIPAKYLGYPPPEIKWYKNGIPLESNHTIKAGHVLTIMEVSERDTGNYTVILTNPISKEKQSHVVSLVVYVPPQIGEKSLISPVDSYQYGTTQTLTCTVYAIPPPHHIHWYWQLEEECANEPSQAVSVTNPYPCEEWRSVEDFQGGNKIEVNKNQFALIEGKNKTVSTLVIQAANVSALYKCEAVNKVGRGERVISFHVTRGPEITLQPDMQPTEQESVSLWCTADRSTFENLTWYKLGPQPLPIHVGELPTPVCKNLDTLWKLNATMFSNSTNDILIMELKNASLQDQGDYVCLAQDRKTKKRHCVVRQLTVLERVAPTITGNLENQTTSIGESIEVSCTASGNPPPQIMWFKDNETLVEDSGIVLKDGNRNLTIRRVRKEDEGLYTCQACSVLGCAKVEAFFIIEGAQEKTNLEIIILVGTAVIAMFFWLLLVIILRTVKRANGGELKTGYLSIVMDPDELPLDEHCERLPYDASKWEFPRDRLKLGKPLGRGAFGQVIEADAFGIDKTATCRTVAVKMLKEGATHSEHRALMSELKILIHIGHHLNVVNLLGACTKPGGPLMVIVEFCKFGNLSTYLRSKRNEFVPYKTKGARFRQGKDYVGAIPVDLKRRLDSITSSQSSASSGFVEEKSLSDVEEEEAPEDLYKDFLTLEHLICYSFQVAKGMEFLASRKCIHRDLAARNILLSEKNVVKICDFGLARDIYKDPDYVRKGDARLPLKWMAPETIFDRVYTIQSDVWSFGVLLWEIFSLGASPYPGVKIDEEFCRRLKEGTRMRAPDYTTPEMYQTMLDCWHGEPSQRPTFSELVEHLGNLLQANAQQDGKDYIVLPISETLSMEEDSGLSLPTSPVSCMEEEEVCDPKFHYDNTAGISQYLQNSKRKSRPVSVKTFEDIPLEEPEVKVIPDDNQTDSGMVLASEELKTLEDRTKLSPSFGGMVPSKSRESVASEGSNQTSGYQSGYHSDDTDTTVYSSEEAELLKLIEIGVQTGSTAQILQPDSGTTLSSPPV

SMILES	IC50 ([1]; Homo sapiens, SK-BR-3, 72 h) [nM]	IC50 ([2]; Homo sapiens, A-431, 72 h) [nM]	IC50 [3] [nM]	IC50 ([4]; Homo sapiens, 72 h) [µM]	IC50 [6] [nM]	IC50 ([5]; Homo sapiens, 96 h) [µM]	IC50 ([4]; 72 hours) [µM]	IC50 ([1]; 72 hours) [nM]	IC50 ([5]; 96 hours) [µM]	IC50 ([2]; 72 hours) [nM]
Clc1ccc(Nc2nnc(Cc3ccncc3)c3ccccc23)cc1 [Control 1, PTK787, reference compound]	10000	10000		10		0.04				
C=CC(=O)Nc1cc2c(Nc3ccc(Br)cc3F)ncnc2cc1OC1CCCN(C(C)=O)C1 (centres unmarked) [Example 89, N-[7-(1-acetyl-piperidin-3-yloxy)-4-(4-bromo-2-fluoro-phenylamino)-quinazolin-6-yl]-acrylamide]	965	368	128	10		10				
C=CC(=O)Nc1cc2c(Nc3ccc(Br)c(Cl)c3)ncnc2cc1OCCNC(=O)CN(C)C [Example 152]			75				10	647	10	99
COc1cc2c(Nc3ccc(Br)cc3F)ncnc2cc1OCC1CCN(C)CC1 [Control 2, ZD6474, reference compound]	2600	28		4.5		0.07				
C=CC(=O)Nc1cc2c(Nc3ccc(Br)cc3F)ncnc2cc1OC1CCN(C(C)=O)C1 (centres unmarked) [Example 88, N-[7-(1-acetyl-pyrrolidin-3-yloxy)-4-(4-bromo-2-fluoro-phenylamino)-quinazolin-6-yl]-acrylamide]	297	99	94	0.723		10				
C=CC(=O)Nc1cc2c(Nc3ccc(Br)c(Cl)c3F)ncnc2cc1OC[C@H](C)NC(=O)CN(C)C [Example 158, (S)—N-4-(4-bromo-3-chloro-2-fluoro-phenylamino)-7-[2-(2-dimethylamino-acetylamino)-propoxy]-quinazolin-6-yl-acrylamide]			23.1				5.15	381	10	259
C=CC(=O)Nc1cc2c(Nc3ccc(Br)cc3F)ncnc2cc1OCC(C)(C)NC(=O)CN(C)C [Example 154, N-{4-(4-bromo-2-fluoro-phenylamino)-7-[2-(2-dimethylamino-acetylamino)-2-methyl-propoxy]-quinazolin-6-yl}-acrylamide]	240	248	222	9.13						
C=CC(=O)Nc1cc2c(Nc3ccc(Br)cc3F)ncnc2cc1OCC(NC(=O)CN(C)C)C(C)C (centres unmarked) [Example 156, N-{4-(4-bromo-2-fluoro-phenylamino)-7-[2-(2-dimethylamino-acetylamino)-3-methyl-buthoxy]-quinazolin-6-yl}-acrylamide]			149				3.27	462	10	196

The next lines start with results.

IC50 ([1]; Homo sapiens, SK-BR-3, 72 h) [nM]	IC50 ([2]; Homo sapiens, A-431, 72 h) [nM]	IC50 [3] [nM]	IC50 ([4]; Homo sapiens, 72 h) [µM]	IC50 [6] [nM]	SMILES	IC50 ([5]; Homo sapiens, 96 h) [µM]	IC50 ([4]; 72 hours) [µM]	IC50 ([1]; 72 hours) [nM]	IC50 ([5]; 96 hours) [µM]	IC50 ([2]; 72 hours) [nM]
1210	396	389			C=CC(=O)N(C)c1cc2c(Nc3ccc(Br)cc3F)ncnc2cc1OCCNC(C)=O [Example 78, N-[7-(2-acetylamino-ethoxy)-4-(4-bromo-2-fluoro-phenylamino)-quinazolin-6-yl]-N-methyl-acrylamide]					
36	47	42	2.7		C=CC(=O)Nc1cc2c(Nc3cc(OC)c(Cl)cc3Cl)ncnc2cc1OCCNC(C)=O [Example 132, N-[7-(2-acetylamino-ethoxy)-4-(2,4-dichloro-5-methoxy-phenylamino)-quinazolin-6-yl]-acrylamide]					
897	468	456			C=CC(=O)Nc1cc2c(Nc3ccc(Br)cc3C(F)(F)F)ncnc2cc1OCCNC(C)=O [Example 114, N-[7-(2-acetylamino-ethoxy)-4-(4-bromo-2-trifluoromethyl-phenylamino)-quinazolin-6-yl]-acrylamide]					
179		69	9.57		C=CC(=O)Nc1cc2c(Nc3ccc(Br)cc3F)ncnc2cc1OCCNC(=O)C1CCCN1C (centres unmarked) [Example 98, 1-methyl-pyrrolidine-2-carboxylic acid {2-[6-acryloylamino-4-(4-bromo-2-fluoro-phenylamino)-quinazolin-7-yloxy]-ethyl}-amide]					78
6340	2880	1020			C=C(C)C(=O)Nc1cc2c(Nc3ccc(Br)cc3F)ncnc2cc1OCCNC(C)=O [Example 76, N-[7-(2-acetylamino-ethoxy)-4-(4-bromo-2-fluoro-phenylamino)-quinazolin-6-yl]-2-methyl-acrylamide]					
26	9	12	8.53		C=CC(=O)Nc1cc2c(Nc3ccc(F)c(Cl)c3)ncnc2cc1OCCNC(C)=O [Example 111, N-[7-(2-acetylamino-ethoxy)-4-(3-chloro-4-fluoro-phenylamino)-quinazolin-6-yl]-acrylamide]					
27	30	14	5.65		C=CC(=O)Nc1cc2c(Nc3cc(OC)c(Cl)cc3OC)ncnc2cc1OCCNC(=O)CN(C)C [Example 166, N-{4-(4-chloro-2,5-dimethoxy-phenylamino)-7-[2-(2-dimethylamino-acetylamino)-ethoxy]-quinazolin-6-yl}-acrylamide]					
		24			C=CC(=O)Nc1cc2c(Nc3ccc(Br)cc3F)ncnc2cc1OCCNC(=O)C1CCCN1C (centres unmarked) [Example 100, 1-methyl-pyrrolidine-2-carboxylic acid {2-[6-acryloylamino-4-(4-bromo-2-fluoro-phenylamino)-quinazolin-7-yloxy]-ethyl}-amide]		10	101		25
				756	C=CC(=O)Nc1cc2c(Nc3cc(C(=O)NOC)c(Br)cc3F)ncnc2cc1OCCNC(C)=O [Example 131, 5-[7-(2-acetylamino-ethoxy)-6-acryloylamino-quinazolin-4-ylamino]-2-bromo-4-fluoro-N-methoxy-benzamide]	0.965				
